Reference: ChEMBL document CHEMBL4507289, “Data for DCP probe GSM1” (2021)

Legend:
[1] = system: Tyrosine-protein kinase ABL1 (Homo sapiens), P00519 [F317L]; conditions: Compound concentration 1000.0 nM
[2] = molecular target: Tyrosine-protein kinase ABL2 (Homo sapiens) (UniProt P42684); conditions: Compound concentration 1000.0 nM
[3] = molecular target: Activin receptor type-2A (Homo sapiens) (UniProt P27037); conditions: Compound concentration 1000.0 nM
[4] = molecular target: Activin receptor type-1-like (Homo sapiens) (UniProt P37023); conditions: Compound concentration 1000.0 nM
[5] = system: ALK tyrosine kinase receptor (Homo sapiens), Q9UM73 [C1156Y]; conditions: Compound concentration 1000.0 nM
[6] = molecular target: 5'-AMP-activated protein kinase catalytic subunit alpha-1 (Homo sapiens) (UniProt Q13131); conditions: Compound concentration 1000.0 nM
[7] = system: Serine/threonine-protein kinase B-raf (Homo sapiens), P15056 [V600E]; conditions: Compound concentration 1000.0 nM
[8] = molecular target: Calcium/calmodulin-dependent protein kinase type II subunit delta (Homo sapiens) (UniProt Q13557); conditions: Compound concentration 1000.0 nM
[9] = molecular target: Dual specificity protein kinase CLK3 (Homo sapiens) (UniProt P49761); conditions: Compound concentration 1000.0 nM
[10] = system: Epidermal growth factor receptor (Homo sapiens), P00533 [G719S]; conditions: Compound concentration 1000.0 nM
[11] = system: Epidermal growth factor receptor (Homo sapiens), P00533 [UNDEFINED MUTATION]; conditions: Compound concentration 1000.0 nM
[12] = molecular target: Tyrosine-protein kinase Fes/Fps (Homo sapiens) (UniProt P07332); conditions: Compound concentration 1000.0 nM
[13] = system: Fibroblast growth factor receptor 3 (Homo sapiens), P22607 [G697C]; conditions: Compound concentration 1000.0 nM
[14] = system: Receptor-type tyrosine-protein kinase FLT3 (Homo sapiens), P36888 [R834Q]; conditions: Compound concentration 1000.0 nM
[15] = molecular target: Tyrosine-protein kinase FRK (Homo sapiens) (UniProt P42685); conditions: Compound concentration 1000.0 nM
[16] = molecular target: G protein-coupled receptor kinase 3 (Homo sapiens) (UniProt P35626); conditions: Compound concentration 1000.0 nM
[17] = molecular target: Mitogen-activated protein kinase kinase kinase kinase 1 (Homo sapiens) (UniProt Q92918); conditions: Compound concentration 1000.0 nM
[18] = molecular target: Tyrosine-protein kinase JAK2 (Homo sapiens) (UniProt O60674); conditions: Compound concentration 1000.0 nM
[19] = system: Mast/stem cell growth factor receptor Kit (Homo sapiens), P10721 [A829P]; conditions: Compound concentration 1000.0 nM
[20] = system: Mast/stem cell growth factor receptor Kit (Homo sapiens), P10721 [V559D,T670I]; conditions: Compound concentration 1000.0 nM
[21] = molecular target: MAP/microtubule affinity-regulating kinase 4 (Homo sapiens) (UniProt Q96L34); conditions: Compound concentration 1000.0 nM
[22] = molecular target: MAP kinase-interacting serine/threonine-protein kinase 1 (Homo sapiens) (UniProt Q9BUB5); conditions: Compound concentration 1000.0 nM
[23] = molecular target: Serine/threonine-protein kinase 3 (Homo sapiens) (UniProt Q13188); conditions: Compound concentration 1000.0 nM
[24] = molecular target: Serine/threonine-protein kinase mTOR (Homo sapiens) (UniProt P42345); conditions: Compound concentration 1000.0 nM
[25] = molecular target: Serine/threonine-protein kinase Nek7 (Homo sapiens) (UniProt Q8TDX7); conditions: Compound concentration 1000.0 nM
[26] = molecular target: Mitogen-activated protein kinase 13 (Homo sapiens) (UniProt O15264); conditions: Compound concentration 1000.0 nM
[27] = molecular target: Serine/threonine-protein kinase PAK 4 (Homo sapiens) (UniProt O96013); conditions: Compound concentration 1000.0 nM
[28] = molecular target: Cyclin-dependent kinase 2 homolog (Plasmodium falciparum (isolate 3D7)) (UniProt P61075); conditions: Compound concentration 1000.0 nM
[29] = system: Phosphatidylinositol 4,5-bisphosphate 3-kinase catalytic subunit alpha isoform (Homo sapiens), P42336 [M1043I]; conditions: Compound concentration 1000.0 nM
[30] = molecular target: Phosphatidylinositol 4-kinase beta (Homo sapiens) (UniProt Q9UBF8); conditions: Compound concentration 1000.0 nM
[31] = molecular target: Phosphatidylinositol 5-phosphate 4-kinase type-2 gamma (Homo sapiens) (UniProt Q8TBX8); conditions: Compound concentration 1000.0 nM
[32] = molecular target: Serine/threonine-protein kinase N1 (Homo sapiens) (UniProt Q16512); conditions: Compound concentration 1000.0 nM
[33] = molecular target: Ribosomal protein S6 kinase alpha-5 (Homo sapiens) (UniProt O75582); conditions: Compound concentration 1000.0 nM
[34] = molecular target: Ribosomal protein S6 kinase alpha-1 (Homo sapiens) (UniProt Q15418); conditions: Compound concentration 1000.0 nM
[35] = molecular target: Serine/threonine-protein kinase Sgk3 (Homo sapiens) (UniProt Q96BR1); conditions: Compound concentration 1000.0 nM
[36] = molecular target: SRSF protein kinase 3 (Homo sapiens) (UniProt Q9UPE1); conditions: Compound concentration 1000.0 nM
[37] = molecular target: Serine/threonine-protein kinase TAO1 (Homo sapiens) (UniProt Q7L7X3); conditions: Compound concentration 1000.0 nM
[38] = molecular target: Non-receptor tyrosine-protein kinase TNK1 (Homo sapiens) (UniProt Q13470); conditions: Compound concentration 1000.0 nM
[39] = molecular target: BDNF/NT-3 growth factors receptor (Homo sapiens) (UniProt Q16620); conditions: Compound concentration 1000.0 nM
[40] = molecular target: Serine/threonine-protein kinase WNK2 (Homo sapiens) (UniProt Q9Y3S1); conditions: Compound concentration 1000.0 nM
[41] = molecular target: Mitogen-activated protein kinase kinase kinase 20 (Homo sapiens) (UniProt Q9NYL2); conditions: Compound concentration 1000.0 nM
[42] = molecular target: D(4) dopamine receptor (Homo sapiens) (UniProt P21917); conditions: Compound concentration 10.0 uM
[43] = molecular target: Sodium-dependent noradrenaline transporter (Homo sapiens, UniProt P23975); conditions: Compound concentration 10.0 uM
[44] = molecular target: Muscarinic acetylcholine receptor M3 (Homo sapiens) (UniProt P20309); conditions: Compound concentration 10.0 uM
[45] = organism: Rattus norvegicus; conditions: Compound concentration 10.0 uM

Sequence of Sodium-dependent noradrenaline transporter (P23975 whole entry): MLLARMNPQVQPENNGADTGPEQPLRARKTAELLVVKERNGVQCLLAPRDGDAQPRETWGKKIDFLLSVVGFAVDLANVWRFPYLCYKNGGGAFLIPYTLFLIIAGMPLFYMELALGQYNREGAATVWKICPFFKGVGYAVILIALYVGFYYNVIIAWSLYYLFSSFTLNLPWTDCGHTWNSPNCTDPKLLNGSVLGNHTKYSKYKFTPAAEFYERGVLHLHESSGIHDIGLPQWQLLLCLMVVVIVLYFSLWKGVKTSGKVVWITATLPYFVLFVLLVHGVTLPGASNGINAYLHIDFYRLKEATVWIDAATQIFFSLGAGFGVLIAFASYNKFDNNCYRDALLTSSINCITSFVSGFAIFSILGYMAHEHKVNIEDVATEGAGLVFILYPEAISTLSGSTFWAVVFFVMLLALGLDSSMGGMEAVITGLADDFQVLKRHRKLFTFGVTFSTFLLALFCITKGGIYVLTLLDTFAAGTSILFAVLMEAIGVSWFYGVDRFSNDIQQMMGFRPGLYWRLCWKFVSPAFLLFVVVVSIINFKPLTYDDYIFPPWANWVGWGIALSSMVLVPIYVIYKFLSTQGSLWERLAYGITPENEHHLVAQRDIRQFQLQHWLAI
Sequence of Activin receptor type-1-like (Homo sapiens) (P37023 whole entry): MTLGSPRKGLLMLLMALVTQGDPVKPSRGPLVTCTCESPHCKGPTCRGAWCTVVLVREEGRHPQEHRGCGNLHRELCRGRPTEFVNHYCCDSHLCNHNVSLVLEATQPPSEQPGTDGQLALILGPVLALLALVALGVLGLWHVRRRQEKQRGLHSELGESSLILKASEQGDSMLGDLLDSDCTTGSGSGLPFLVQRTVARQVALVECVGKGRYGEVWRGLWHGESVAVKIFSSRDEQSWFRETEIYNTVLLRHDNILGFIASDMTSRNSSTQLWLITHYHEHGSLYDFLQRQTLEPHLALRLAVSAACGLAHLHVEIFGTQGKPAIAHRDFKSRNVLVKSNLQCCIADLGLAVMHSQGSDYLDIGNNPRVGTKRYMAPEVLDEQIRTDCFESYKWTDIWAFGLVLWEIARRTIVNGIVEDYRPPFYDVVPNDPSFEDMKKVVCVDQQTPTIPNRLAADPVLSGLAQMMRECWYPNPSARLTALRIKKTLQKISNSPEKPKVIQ
Sequence of SRSF protein kinase 3 (Homo sapiens) (Q9UPE1 whole entry): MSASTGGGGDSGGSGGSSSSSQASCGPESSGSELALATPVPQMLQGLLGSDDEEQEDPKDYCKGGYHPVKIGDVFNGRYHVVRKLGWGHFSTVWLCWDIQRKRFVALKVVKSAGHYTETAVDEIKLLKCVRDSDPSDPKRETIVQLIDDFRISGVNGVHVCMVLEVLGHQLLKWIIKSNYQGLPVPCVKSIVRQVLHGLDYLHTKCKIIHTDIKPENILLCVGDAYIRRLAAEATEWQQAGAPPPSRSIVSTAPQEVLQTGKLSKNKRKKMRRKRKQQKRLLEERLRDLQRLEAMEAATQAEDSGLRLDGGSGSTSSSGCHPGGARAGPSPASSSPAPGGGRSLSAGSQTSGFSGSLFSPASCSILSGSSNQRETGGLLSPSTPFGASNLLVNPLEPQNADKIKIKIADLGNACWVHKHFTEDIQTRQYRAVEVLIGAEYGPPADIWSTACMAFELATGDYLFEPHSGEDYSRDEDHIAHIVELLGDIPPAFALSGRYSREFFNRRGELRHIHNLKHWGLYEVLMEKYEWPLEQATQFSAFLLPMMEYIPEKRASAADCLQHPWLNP
Sequence of ALK tyrosine kinase receptor (Homo sapiens), Q9UM73 [C1156Y] (Q9UM73 whole entry C1156Y, looked up): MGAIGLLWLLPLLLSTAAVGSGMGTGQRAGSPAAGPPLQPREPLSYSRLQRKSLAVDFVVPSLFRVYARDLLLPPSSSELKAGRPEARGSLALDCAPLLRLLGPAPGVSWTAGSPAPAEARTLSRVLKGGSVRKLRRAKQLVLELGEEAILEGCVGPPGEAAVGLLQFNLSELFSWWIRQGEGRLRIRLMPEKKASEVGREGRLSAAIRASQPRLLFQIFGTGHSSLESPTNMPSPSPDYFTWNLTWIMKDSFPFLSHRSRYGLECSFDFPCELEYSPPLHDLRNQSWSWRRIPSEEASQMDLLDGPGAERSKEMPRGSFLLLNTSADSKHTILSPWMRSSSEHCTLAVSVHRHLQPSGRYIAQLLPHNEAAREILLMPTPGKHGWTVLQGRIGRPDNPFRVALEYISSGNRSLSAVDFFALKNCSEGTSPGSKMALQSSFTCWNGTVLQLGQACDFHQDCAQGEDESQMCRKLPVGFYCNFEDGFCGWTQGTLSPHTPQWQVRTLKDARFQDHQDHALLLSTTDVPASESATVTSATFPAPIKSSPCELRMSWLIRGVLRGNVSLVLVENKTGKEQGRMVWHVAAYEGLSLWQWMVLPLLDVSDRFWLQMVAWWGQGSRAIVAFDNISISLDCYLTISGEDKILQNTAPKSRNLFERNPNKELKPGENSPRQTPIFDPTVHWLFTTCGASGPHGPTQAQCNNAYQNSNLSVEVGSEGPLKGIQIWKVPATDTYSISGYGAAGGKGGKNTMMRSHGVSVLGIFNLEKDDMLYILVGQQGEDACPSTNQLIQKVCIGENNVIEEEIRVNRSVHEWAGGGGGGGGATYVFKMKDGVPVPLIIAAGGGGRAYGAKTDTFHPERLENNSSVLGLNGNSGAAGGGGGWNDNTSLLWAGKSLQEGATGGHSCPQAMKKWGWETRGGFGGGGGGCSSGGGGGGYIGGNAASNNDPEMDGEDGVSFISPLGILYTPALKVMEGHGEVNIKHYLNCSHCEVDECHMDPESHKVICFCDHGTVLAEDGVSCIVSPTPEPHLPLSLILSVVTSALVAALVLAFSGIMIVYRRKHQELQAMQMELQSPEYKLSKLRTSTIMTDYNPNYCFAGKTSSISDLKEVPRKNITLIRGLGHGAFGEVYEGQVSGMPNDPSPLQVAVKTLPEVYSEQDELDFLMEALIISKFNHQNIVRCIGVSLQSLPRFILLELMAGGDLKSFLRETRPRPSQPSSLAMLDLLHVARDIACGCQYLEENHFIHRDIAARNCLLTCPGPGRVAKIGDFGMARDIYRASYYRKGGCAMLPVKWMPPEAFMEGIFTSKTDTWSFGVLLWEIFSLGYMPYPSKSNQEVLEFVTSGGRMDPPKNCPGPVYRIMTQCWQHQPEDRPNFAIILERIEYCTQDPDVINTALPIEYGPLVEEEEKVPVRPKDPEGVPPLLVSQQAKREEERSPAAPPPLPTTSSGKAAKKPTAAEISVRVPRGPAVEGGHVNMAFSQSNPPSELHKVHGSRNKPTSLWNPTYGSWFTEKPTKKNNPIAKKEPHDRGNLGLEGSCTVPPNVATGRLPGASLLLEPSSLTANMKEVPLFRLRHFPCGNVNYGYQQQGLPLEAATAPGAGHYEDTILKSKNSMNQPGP
Sequence of Mitogen-activated protein kinase 13 (Homo sapiens) (O15264 whole entry): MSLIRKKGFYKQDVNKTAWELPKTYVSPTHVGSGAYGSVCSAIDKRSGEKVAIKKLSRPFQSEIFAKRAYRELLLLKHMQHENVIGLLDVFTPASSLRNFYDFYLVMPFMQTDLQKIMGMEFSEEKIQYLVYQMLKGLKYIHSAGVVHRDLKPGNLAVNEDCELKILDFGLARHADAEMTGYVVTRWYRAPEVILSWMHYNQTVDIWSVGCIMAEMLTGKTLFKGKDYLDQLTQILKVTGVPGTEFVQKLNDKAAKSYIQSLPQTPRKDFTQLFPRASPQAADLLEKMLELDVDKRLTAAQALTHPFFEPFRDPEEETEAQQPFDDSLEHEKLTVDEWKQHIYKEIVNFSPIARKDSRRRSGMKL
Sequence of Serine/threonine-protein kinase B-raf (Homo sapiens), P15056 [V600E] (P15056 whole entry V600E): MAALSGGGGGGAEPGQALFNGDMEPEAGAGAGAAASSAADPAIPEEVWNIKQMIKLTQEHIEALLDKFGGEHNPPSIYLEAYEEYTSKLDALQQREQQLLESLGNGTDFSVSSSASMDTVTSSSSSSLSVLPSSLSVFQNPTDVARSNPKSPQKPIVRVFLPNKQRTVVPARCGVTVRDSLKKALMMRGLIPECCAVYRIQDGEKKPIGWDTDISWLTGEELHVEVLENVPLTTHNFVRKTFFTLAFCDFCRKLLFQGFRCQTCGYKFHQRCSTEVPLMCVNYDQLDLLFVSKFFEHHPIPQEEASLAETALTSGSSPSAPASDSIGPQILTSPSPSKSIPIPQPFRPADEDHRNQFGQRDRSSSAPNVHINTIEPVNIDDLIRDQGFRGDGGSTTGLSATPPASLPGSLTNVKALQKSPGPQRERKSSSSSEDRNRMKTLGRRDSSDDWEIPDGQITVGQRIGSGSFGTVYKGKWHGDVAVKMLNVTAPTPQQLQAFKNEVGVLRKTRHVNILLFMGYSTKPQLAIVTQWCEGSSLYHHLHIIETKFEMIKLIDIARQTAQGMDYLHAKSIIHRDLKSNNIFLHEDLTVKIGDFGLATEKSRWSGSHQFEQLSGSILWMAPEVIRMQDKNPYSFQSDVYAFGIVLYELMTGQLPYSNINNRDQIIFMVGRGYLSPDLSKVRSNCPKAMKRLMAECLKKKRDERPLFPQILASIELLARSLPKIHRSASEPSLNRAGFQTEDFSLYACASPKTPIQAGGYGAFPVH
Sequence of Cyclin-dependent kinase 2 homolog (Plasmodium falciparum (isolate 3D7)) (P61075 whole entry, canonical isoform): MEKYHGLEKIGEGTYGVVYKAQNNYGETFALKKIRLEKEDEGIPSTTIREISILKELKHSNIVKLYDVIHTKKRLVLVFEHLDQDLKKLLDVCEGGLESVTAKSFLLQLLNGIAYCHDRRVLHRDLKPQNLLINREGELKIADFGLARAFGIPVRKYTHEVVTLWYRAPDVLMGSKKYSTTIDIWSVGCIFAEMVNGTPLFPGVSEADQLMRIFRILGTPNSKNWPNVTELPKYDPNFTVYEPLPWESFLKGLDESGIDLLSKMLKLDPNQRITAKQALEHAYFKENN
Sequence of Serine/threonine-protein kinase Nek7 (Homo sapiens) (Q8TDX7 whole entry, looked up): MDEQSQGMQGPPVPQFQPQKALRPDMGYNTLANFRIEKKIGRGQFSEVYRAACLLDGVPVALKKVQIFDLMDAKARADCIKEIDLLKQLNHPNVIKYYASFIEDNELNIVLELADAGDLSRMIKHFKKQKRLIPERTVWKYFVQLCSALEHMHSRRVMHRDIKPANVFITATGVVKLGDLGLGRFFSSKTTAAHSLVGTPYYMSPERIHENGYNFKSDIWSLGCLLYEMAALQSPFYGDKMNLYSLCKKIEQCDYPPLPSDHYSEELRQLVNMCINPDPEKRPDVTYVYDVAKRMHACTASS

COc1cc(-c2cn([C@H]3CCc4ccccc4N(CC(F)(F)F)C3=O)nn2)ccc1-n1ccc(C)n1
residual activity [1]: 57%
residual activity [2]: 100%
residual activity [3]: 100%
residual activity [4]: 100%
residual activity [5]: 100%
residual activity [6]: 100%
residual activity [7]: 97%
residual activity [8]: 100%
residual activity [9]: 95%
residual activity [10]: 100%
residual activity [11]: 100%
residual activity [12]: 100%
residual activity [13]: 90%
residual activity [14]: 100%
residual activity [15]: 100%
residual activity [16]: 100%
residual activity [17]: 100%
residual activity [18]: 34%
residual activity [19]: 68%
residual activity [20]: 92%
residual activity [21]: 100%
residual activity [22]: 78%
residual activity [23]: 84%
residual activity [24]: 100%
residual activity [25]: 100%
residual activity [26]: 88%
residual activity [27]: 100%
residual activity [28]: 100%
residual activity [29]: 100%
residual activity [30]: 87%
residual activity [31]: 100%
residual activity [32]: 100%
residual activity [33]: 74%
residual activity [34]: 82%
residual activity [35]: 84%
residual activity [36]: 100%
residual activity [37]: 92%
residual activity [38]: 100%
residual activity [39]: 93%
residual activity [40]: 87%
residual activity [41]: 85%
inhibition [42]: 52.4%
inhibition [43]: 49.4%
inhibition [44]: -6.94%
inhibition [45]: 59.5%

COc1cc(-c2cn([C@H]3CCc4c(F)cccc4N(CC(F)(F)F)C3=O)nn2)ccc1-n1cnc(C)c1
residual activity [1]: 78%
residual activity [2]: 100%
residual activity [3]: 0%
residual activity [4]: 100%
residual activity [5]: 100%
residual activity [6]: 100%
residual activity [7]: 100%
residual activity [8]: 100%
residual activity [9]: 83%
residual activity [10]: 90%
residual activity [11]: 96%
residual activity [12]: 100%
residual activity [13]: 100%
residual activity [14]: 100%
residual activity [15]: 100%
residual activity [16]: 100%
residual activity [17]: 100%
residual activity [18]: 100%
residual activity [19]: 92%
residual activity [20]: 94%
residual activity [21]: 100%
residual activity [22]: 87%
residual activity [23]: 100%
residual activity [24]: 100%
residual activity [25]: 100%
residual activity [26]: 100%
residual activity [27]: 99%
residual activity [28]: 100%
residual activity [29]: 100%
residual activity [30]: 79%
residual activity [31]: 100%
residual activity [32]: 96%
residual activity [33]: 100%
residual activity [34]: 81%
residual activity [35]: 100%
residual activity [36]: 100%
residual activity [37]: 100%
residual activity [38]: 100%
residual activity [39]: 92%
residual activity [40]: 53%
residual activity [41]: 100%
inhibition [42]: -7.76%
inhibition [43]: 87.1%
inhibition [44]: -4.42%
inhibition [45]: 8.82%
